Where two headings read alike, the source gives them in different places.
Assays:
[1] = In vivo pharmacokinetics in ICR mice; design: species or system male ICR mice; details: mouse, plasma
Protocol: Animal experiments assessing PK and in vivo toxicity profile of ZL0580 was performed by the contracting research organization (CRO) Sundia. The studies were performed according to the NIH Guide for Care and Use of Experimental Animals. The PK studies of ZL0580 was performed using male ICR mice (18–22 g). The mice were randomly divided into two groups (n = 3). The mice of the group 1 were intravenously administrated with ZL0580 [10 mg/kg, in 10% DMSO + 10% Solutol HS 15 + 80% HP-β-CD (20%, w/v)] and the mice of the group 2 were orally administrated with ZL0580 [20 mg/kg, in 10% DMSO + 90% HP-β-CD (20%, w/v)]. Blood samples of group 1 and group 2 mice were collected at the indicated time points post treatment and put into heparinized centrifugation tubes, which were centrifuged under the condition of 6800 rpm and 4 °C for 6 min. The supernatant was collected and stored at -20 °C for further LC-MS analysis. Before the plasma concentrations (AUC) were determined, standard curves were generated with various concentrations of ZL0580 and the internal standard (IS). All PK parameters were calculated with WinNonlin 6.4 software.

[2] = Body weight / tolerability in HIV-infected Hu-mice; assay type: in vivo, CD34+ Hu-NSG mice (Hu-mice)
Source text: To assess general health of the mice and potential protective effects of the treatments, body weights of Hu-mice were closely monitored. […] There was a slight reduction in body weights of Hu-mice in the EV group following HIV infection. However, no statistically significant difference was detected as compared to the three treatment groups (Fig 6E).
Mice were 16-week-old at the initiation of the experiments. All mice received human CD34 + stem cells of a single donor and human immune cell reconstitution was confirmed for all mice. A total of 12 Hu-mice were initially included in the study with each tagged and assigned with a unique ID. At week 0, all Hu-mice were intravenously (IV) infected with HIV-1 JR-CSF at a single dose of 10ng HIV p24 equivalent virus per animal. Blood/plasma viral loads were monitored and quantified weekly by a single-step RT-qPCR until systemic HIV infection was established. […] At week 3, the remaining 11 Hu-mice were randomized into four groups for subsequent treatments: Empty Vehicle (EV) (n = 2), ART (n = 3), ZL0580 (n = 3), and ART + ZL0580 (n = 3). […] Plasma samples were collected from mice either weekly or biweekly for quantification of viral loads (RNA copies). Blood cells were also collected at weeks 7 and 13 for quantification of cell-associated HIV DNA in blood. Mouse weights were monitored after treatment.

BRD4 BD1 E151A = target: T1, BRD4 BD1 E151A (Homo sapiens, UniProt O60885, E151A); assay: Thermal shift assay (TSA/DSF), BD1 E151A mutant; assay type: binding; details: eight increasing concentrations
T1 construct: Constructs used for mutagenesis, including wild-type BD1 (BD1 WT), BD1 with an E151A mutation (BD1 E151A), and wild-type BD2 (BD2 WT); GST (cleaved yes); made in house
Protocol: (§1) The melting temperatures shifts (ΔTm) were measured and the ΔTm curves as a function of compound-to-protein ratios were generated (Fig 2B–2C). […] As an additional control, the Tm of WT BD1 and E151A mutant in the absence of compound was also measured by TSA.
(§2) Plasmid construction and subsequent protein expression and purification of BRD4 proteins were performed using OverExpress C43(DE3) bacterial competent cells (Lucigen) as described in our previous studies. In brief, 12 L of bacterial cultures grown to OD600 between 0.6-0.8 were induced at 37°C for 4 h by 1 mM isopropyl […] (IPTG). Bacterial sonication supernatant in the lysis buffer (500 mM NaCl, 20 mM Tris-HCl pH 7.9 at 4°C, 20% glycerol, 1 mM EDTA, 0.2 mM DTT, and protease inhibitors) was incubated with glutathione (GSH) agarose beads (GOLDBIO, G-250–100) overnight with rotation at 4°C. The protein-bound GSH beads were washed three times with the lysis buffer and digested with human rhinovirus 3C protease (HRV-P3C; Thermal Fisher 88946) at 4°C for 4 h, according to the manufacture’s procedure, to remove GST tag from BD1/2 proteins. Untagged BRD4-BD1 and -BD2 were separated from HRV-P3C via passing through a HiTrap Q HP anion exchange chromatography column (GE Healthcare, GE17-1154-01) and eluted by a salt gradient from 100 mM to 1 M NaCl. […]

BRD4 BD2 = test system: BRD4 BD2; design: method as in PMID 31329163; details: in vitro binding affinity; cited from earlier work
J-Lat cells (clone 10.6) = assay: RNA-Seq differential gene expression; assay type: cell-based, human; details: 5 μM, 24 hours, vs. NC; p < 0.001 and log2 fold change > 1
Protocol: 24 hours after treatment, RNA was extracted from cells for sequencing analysis. RNA-Seq was conducted on duplicate samples for each condition.
Following the treatment, total RNA was extracted from the cells using the RNeasy Mini Kit (Qiagen) in accordance with the manufacturer’s instructions. To ensure the integrity and quality of the isolated RNA, samples were first quantified and then analyzed by agarose gel electrophoresis. Clear and intact ribosomal RNA bands confirmed that the RNA was of high quality and suitable for downstream applications. The verified RNA samples were subsequently submitted for high-throughput RNA sequencing (RNA-seq) to evaluate transcriptomic changes induced by the respective treatments. RNA sample quality was assessed using Agilent Bioanalyzer and samples with a RIN value larger than 7.0 were used for library preparation. RNA-Seq libraries were prepared using NEBNext Poly(A) mRNA Magnetic Isolation module (E7490) and NEBNext Ultra II Directional RNA Library Prep kit for illumina (E7760) following manufacturer’s recommended procedure. The library quality was assessed using Agilent Bioanalyzer High Sensitivity DNA chip and real-time PCR and pooled together for sequencing. The pooled library was sequenced on Illumina NextSeq 550 Mid Output 150 cycle kit for Paired End 75 bp reads targeting ~20 million paired reads per sample. The sequencing reads were mapped to human reference genome hg38 using STAR v2.7.5c [59] using recommended ENCODE parameters. Differential gene expression analysis was performed using Bioconductor DESeq 2 package [60].

[3] = test system: BRD4-knockout (KO) J-Lat cells; assay: RT-qPCR of differentially expressed genes, BRD4-KO J-Lat cells; assay type: cell-based, human; details: same treatments
Protocol: To validate the RNA-Seq results, RT-qPCR analysis was performed on a subset of differentially expressed genes (DEGs) (Fig 3E). Eight representative DEGs were selected based on statistical significance (adjusted p values) and their involvement in key pathways identified by GSEA, including lipid metabolism/cholesterol biosynthesis (HMGCS1, SQLE, DHCR7) and cytokine signaling (ITK and DUSP8). Relative gene expression levels were normalized to the housekeeping gene GAPDH. […] As an additional control, RT-qPCR was also performed on RNA isolated from BRD4-knockout (KO) J-Lat cells that received the same treatments. The generation and characterization of BRD4-KO J-Lat cells were described previously.
RT-qPCR was performed as previously reported.

BRD4 BD2 WT = target: T2, BRD4 BD2 WT (Homo sapiens, UniProt O60885); assay: Thermal shift assay (TSA/DSF), BD2 WT; assay type: binding; details: eight increasing concentrations
T2 construct: Constructs used for mutagenesis, including wild-type BD1 (BD1 WT), BD1 with an E151A mutation (BD1 E151A), and wild-type BD2 (BD2 WT); GST (cleaved yes); made in house
Protocol: as §1, §2

O=C(Nc1ccc(C(F)(F)F)cc1)Nc1ccc(S(=O)(=O)N2CCC[C@H]2C(=O)Nc2ccccc2)cc1 [ZL0580]
AUC(0-t) ([1]; male, IV, 10 mg/kg, ICR mice): 14400 ± 3470 ng·h/mL
AUC(0-inf) ([1]; male, IV, 10 mg/kg, ICR mice, read-out: AUC0-∞): 14400 ± 3470 ng·h/mL
Cmax ([1]; IV (10 mg/kg), male ICR mice): 19300 ± 2790 ng/mL
MRT inf ([1]; IV (10 mg/kg), male ICR mice): 0.73 ± 0.12 h
clearance ([1]; IV (10 mg/kg), male ICR mice): 12 mL/min/kg
half-life ([1]; IV (10 mg/kg), male ICR mice): 0.91 ± 0.06 h
Vd ([1]; IV (10 mg/kg), male ICR mice, read-out: Vz): 0.95 ± 0.28 L/kg
AUC(0-t) ([1]; PO (20 mg/kg), male ICR mice): 5590 ± 1880 ng·h/mL
Cmax ([1]; PO (20 mg/kg), male ICR mice): 1470 ± 186 ng/mL
MRT inf ([1]; PO (20 mg/kg), male ICR mice): 3.18 ± 1.39 h
half-life ([1]; PO (20 mg/kg), male ICR mice): 2.54 ± 2.24 h
AUC(0-inf) ([1]; PO (20 mg/kg), male ICR mice, read-out: AUC0-inf): 5800 ± 2120 ng·h/mL
Tolerability in Hu-mice ([2]; daily intraperitoneal administration over the course of treatment): well tolerated
Body weights of Hu-mice ([2]; daily intraperitoneal administration, throughout the study): maintained stable body weights
Effect on stability of BD1 E151A mutant (TSA) (BRD4 BD1 E151A): almost no effect
IC50 (BRD4 BD2): 1070 nM
Downregulated genes (J-Lat cells (clone 10.6)): 104 genes
Significantly regulated genes (total) (J-Lat cells (clone 10.6)): 166 genes
Upregulated genes (J-Lat cells (clone 10.6)): 62 genes
Contrasting regulatory effects on representative DEGs in the absence of BRD4 [3]: largely abolished
Effect on stability of WT BD2 (TSA) (BRD4 BD2 WT): sparing BD2

Reference: paper PMC12880750, “Mechanistic insights and in vivo HIV suppression by the BRD4-targeting small molecule ZL0580” (PLOS Pathogens, 2026)
